Measured values as given in patent US20210346401A1, “REGULATOR OF TGR5 SIGNALING AS IMMUNOMODULATORY AGENT” (YICHANG HUMANWELL PHARMACEUTICAL CO., LTD, priority 2018, published 2021).

Legend:
[1] = system: SRC; test: Induction of pY416 of SRC by INT-777 and BA treatments (immunoblotting); format: cell-based; conditions: HEK293 cells, treatment for 1 hours
Experimental: G. Induction of pY416 of SRC by INT-777 and BA treatments. HEK293 cells were treated with DMSO, INT-777 or the indicated BAs for 1 hours, followed by immunoblotting analysis with the indicated antibodies.
(§1) Cells were lysed with RIPA buffer plus complete protease inhibitors and 20 mM NEM, and lysates were sonicated for 1 min. The lysates were centrifuged at 14000 rpm for 20 min at 4° C. The supernatants were incubated with respective antibodies at 4° C. overnight before protein G beads were added for 2 h. The beads were washed with cold PBS plus 0.5 M NaCl for three times followed by an additional wash with PBS. Proteins were separated by 8% SDS-PAGE, followed by immunoblot analysis with the indicated antibodies.

[2] = system: TGR5; conditions: Tgr5+/+ macrophages (BMDMs); infected half an hour, then treatment for 6 hours
[3] = system: THP1 cells; test: Effects of kinase inhibitors on virus-induced expression of BA metabolism genes and IFNB1 (qPCR); format: cell-based, human; conditions: inhibitor treatment, then HSV-1 or SeV for 4 hours
[4] = system: Raw264.7 cells; test: Induction of type I IFNs and other antiviral genes by BAs (qPCR); format: cell-based; conditions: indicated concentrations of BAs
Experimental: D. Induction of type I IFNs and other antiviral genes by BAs. Raw264.7 cells were treated by the indicated concentrations of the indicated BAs, followed by qPCR analysis of the expression of the indicated genes. L. Induction of type I IFNs and other antiviral genes by BAs. Raw264.7 cells were treated with LCA (200 μM) or CDCA (200 μM) for the indicated times, followed by qPCR analysis of the expression of the indicated genes.

[5] = system: Raw264.7 cells; test: Induction of phosphorylation of TBK1 and IRF3 by BAs (immunoblotting); format: cell-based; conditions: indicated concentrations of CDCA and LCA
Experimental: as §1, with “E. Induction of phosphorylation of TBK1 and IRF3 by BAs. Raw264.7 cells were treated by the indicated concentrations of CDCA and LCA, followed by immunoblotting analysis with the indicated antibodies. Cells” for “Cells”

[6] = system: VSV-GFP; format: cell-based
[7] = system: monocytes; conditions: monocytes in vitro; cited from earlier work

CC[C@H]1[C@@H](O)[C@@H]2[C@H](C[C@H](O)[C@]3(C)[C@@H]([C@H](C)C[C@H](C)C(=O)O)CC[C@@H]23)[C@@]2(C)CC[C@@H](O)C[C@@H]12 [INT-777]
phosphorylation of SRC at Y416 [1]: induced phosphorylation
HSV-1- and SeV-induced transcription of Ifnb1 [2]: potentiated

Cc1ccc2nc(NCCN)c3ncc(C)n3c2c1 [BMS-345541]
HSV-1- and SeV-induced transcription of CYP7A1, CYP7B1, CYP27A1 and OATP genes [3]: abolished

C[C@H](CCC(=O)O)[C@H]1CC[C@H]2[C@@H]3[C@H](O)C[C@@H]4C[C@H](O)CC[C@]4(C)[C@H]3CC[C@]12C [CDCA, chenodeoxycholic acid]
transcription of downstream innate immunity genes including IFNB1, CXCL10 and ISG56 [4]: potently induced
phosphorylation of TBK1 and IRF3 [5]: induced phosphorylation
VSV-GFP replication [6]: dramatically inhibited
production of interleukin-1, interleukin-6 and tumor necrosis factor-α [7]: inhibits
HSV-1- and SeV-induced transcription of Ifnb1 [2]: potentiated
